Test results published in patent publication US20220017572A1, “GEMINOID LIPOPEPTIDE COMPOUNDS AND THEIR USES” (Erasmus University Medical Center Rotterdam, priority 2016, published 2022).
Non-standard residues stand in square brackets, D forms with d. Residues, ends and D or L forms follow the SMILES beside them. C16 = C16 alkyl chain at peptide end (geminoid)

Experiments:
[1] = biological target: T1, DENV2 protease (Dengue virus type 2, UniProt P14340); assay: DENV2 protease biochemical assay; settings: for inhibition at 50 µM / % Inhibition at 50 μM (2): 50 μM inhibitor
T1 construct: The active site of the dengue protease is in the N-terminal part of NS3
T1 sequence (P14340 1476-1653): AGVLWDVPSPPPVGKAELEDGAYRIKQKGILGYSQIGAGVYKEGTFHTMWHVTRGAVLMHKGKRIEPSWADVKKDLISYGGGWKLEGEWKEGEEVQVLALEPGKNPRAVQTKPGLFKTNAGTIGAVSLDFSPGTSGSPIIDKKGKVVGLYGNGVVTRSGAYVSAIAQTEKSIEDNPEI
T1 sequence (P14340 1398-1437): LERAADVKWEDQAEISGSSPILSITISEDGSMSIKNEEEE

[2] = system: DENV2 protease replicon; assay: DENV2 protease replicon assay; assay type: cell-based; settings: lowest concentration with observed activity in replicon assay
[3] = biological target: T2, dengue 2 protease (Dengue virus type 2, UniProt P14340); assay: Dengue 2 protease inhibition, hydrolysis of Z-RR-MCA; assay type: biochemical, dengue 2 virus; set-up: Activity with inhibitors: unit not given here; settings: for Activity with inhibitors: 10 μM Z-RR-MCA, pH 9.0, 37° C., initial activity in UAF/min
T2 construct: The active site of the dengue protease is in the N-terminal part of NS3
T2 sequence (P14340 1476-1653): as the sequence (P14340 1476-1653) above
Description: The active site of the dengue protease is in the N-terminal part of NS3 which is also a serine protease with catalytic triad Asp79-His51-Ser135, but requires […] (CF40) for activity; the inhibition reported here was studied on a […] (CF40-GGGGSGGGG-NS3; (SEQ ID NO:54)) which has also been structurally characterized [Erbel et al., 2006; Luo et al. 2008].
Substrate was added in a concentration 10 times the Km, and the inhibitor compounds of type C (C16-KGnK-C16, C16-KAnK-C16, and C16-RAnR-C16) were added in increasing concentrations (1.0, 5.0, 10.0, 20.0, 40.0 μL) from a stock solution of 2 mg in 1 mL DMSO. The residual activity was measured in a Hitachi F2500 spectrofluorimeter, and plots were fitted using the Grafit® software (Erithracus Software, Horley, Surrey, UK). All the assays were calculated by the Morrison equation for competitive inhibition (eq. 1, [Morrison, 1969]). The amount of substrate used for the tight binding titration experiments follow all the requirements, where [S]<<Km for all enzymes, so the Kiapp=Ki.
Range of Proteases Inhibited by Geminoids, Determination of Ki with Z-RR-MCA (Dengue 2 Protease) and Ac-RVRR-MCA (Furin) (SEQ ID NO:60).

[4] = biological target: T2, dengue 2 protease; assay: Dengue 2 protease inhibition in presence of Triton X-100 (detergent test, Nature Protocol); assay type: biochemical, dengue 2 virus; settings: 0.05% Triton X-100; for Activity with 0.05% Triton: initial activity in UAF/min
Source text: A further investigation of the interactions of the geminoid inhibitors with biological membranes and with membrane-bound proteases is needed. […] The preparation and tests of peptides symmetrically, asymmetrically and singly alkylated with saturated, short (C6), and unsaturated (C18:1) alkyl tails are in progress.

Molecule	IC50 [1] [nM]	inhibition at 50 µM [1] [%]	Replicon activity [μM] (1) [2] [µM]	% Inhibition at 50 μM (2) [1] [%]	also measured
CCCCCCCCCCCCNC(=O)[C@H](CCCCN)NC(=O)[C@H](CCCCN)NC(=O)[C@H](CCCCN)NC(=O)[C@H](C)NC(=O)CCCCCCCCCCC [C12-AKKK-C12] (HELM PEPTIDE1{[CCCCCCCCCCCC(=O)[*:2]].A.K.K.K.[CCCCCCCCCCCCN[*:1]]}$$$$V2.0)	300	98.5	0.1		
CCCCCCCCCCCCNC(=O)[C@H](CCCCN)NC(=O)[C@H](CCCCN)NC(=O)[C@H](CCCCN)NC(=O)[C@H](CC(C)C)NC(=O)CCCCCCCCCCC [C12-LKKK-C12] (HELM PEPTIDE1{[CCCCCCCCCCCC(=O)[*:2]].L.K.K.K.[CCCCCCCCCCCCN[*:1]]}$$$$V2.0)	300	102	0.1		
CCCCCCCCCCCCCCCCNC(=O)[C@H](CCCCN)NC(=O)[C@H](CCC(N)=O)NC(=O)[C@H](CCCNC(=N)N)NC(=O)[C@H](C)NC(=O)CCCCCCCCCCCCCCC [C16-ARQK-C16] (HELM PEPTIDE1{[CCCCCCCCCCCCCCCC(=O)[*:2]].A.R.Q.K.[CCCCCCCCCCCCCCCCN[*:1]]}$$$$V2.0)	300	95.7	5.0		
CCCCCCCCCCCCCCCCNC(=O)[C@@H](CO)NC(=O)[C@@H](CCCCN)NC(=O)[C@@H](C)NC(=O)[C@@H](CCCCN)NC(=O)[C@@H](CC(C)C)NC(=O)CCCCCCCCCCCCCCC [C16-D-LKAKS-C16] (HELM PEPTIDE1{[CCCCCCCCCCCCCCCC(=O)[*:2]].[dL].[dK].[dA].[dK].[dS].[CCCCCCCCCCCCCCCCN[*:1]]}$$$$V2.0)		97.4	3.0		
CCCCCCCCCCCCCCCCNC(=O)[C@H](CCCCN)NC(=O)[C@H](CCCCN)NC(=O)[C@H](CCCCN)NC(=O)[C@H](Cc1ccccc1)NC(=O)CCCCCCCCCCCCCCC [C16-FKKK-C16] (HELM PEPTIDE1{[CCCCCCCCCCCCCCCC(=O)[*:2]].F.K.K.K.[CCCCCCCCCCCCCCCCN[*:1]]}$$$$V2.0)	200	95.8	5.0		
CCCCCCCCCCCCCCCCNC(=O)[C@H](CO)NC(=O)[C@H](CCCCN)NC(=O)[C@H](C)NC(=O)[C@H](CCCCN)NC(=O)[C@H](CC(C)C)NC(=O)CCCCCCCCCCCCCCC [C16-LKAKS-C16] (HELM PEPTIDE1{[CCCCCCCCCCCCCCCC(=O)[*:2]].L.K.A.K.S.[CCCCCCCCCCCCCCCCN[*:1]]}$$$$V2.0)	300	108	3.0		
CCCCCCCCCCCCCCCCNC(=O)[C@H](CCCCN)NC(=O)[C@H](CCC(N)=O)NC(=O)[C@H](C)NC(=O)[C@H](CCCNC(=N)N)NC(=O)CCCCCCCCCCCCCCC [C16-RAQK-C16] (HELM PEPTIDE1{[CCCCCCCCCCCCCCCC(=O)[*:2]].R.A.Q.K.[CCCCCCCCCCCCCCCCN[*:1]]}$$$$V2.0)	600	102	10.0		
CCCCCCCCCCCCCCCCNC(=O)[C@H](CCCNC(=N)N)NC(=O)[C@H](C)NC(=O)[C@H](C)NC(=O)[C@H](C)NC(=O)[C@H](CCCNC(=N)N)NC(=O)CCCCCCCCCCCCCCC [C16RA3RC16, n-C15H31C(O)-Arg-(Ala)3-Arg-(n-C16H33).2TFA] (HELM PEPTIDE1{[CCCCCCCCCCCCCCCC(=O)[*:2]].R.A.A.A.R.[CCCCCCCCCCCCCCCCN[*:1]]}$$$$V2.0)					Ki [3]: 1300 nM; Activity with inhibitors ([3]; 15 μM of inhibitor): 55; % recovery in presence of Triton ([4]; 15 μM of inhibitor): 50%; Activity with 0.05% Triton ([4]; 15 μM of inhibitor): 124
CCCCCCCCCCCCCCCCNC(=O)[C@H](CCCNC(=N)N)NC(=O)[C@H](C)NC(=O)[C@H](CCCNC(=N)N)NC(=O)CCCCCCCCCCCCCCC [C16RARC16, n-C15H31C(O)-Arg-Ala-Arg-(n-C16H33).2TFA]					Ki [3]: 3100 nM; Activity with inhibitors ([3]; 5 μM of inhibitor): 27; % recovery in presence of Triton ([4]; 5 μM of inhibitor): 52%; Activity with 0.05% Triton ([4]; 5 μM of inhibitor): 105
C16-AAQK-C16: geminoid in shorthand Cp-Zn-Cq, peptide SEQ ID NO: 78			5.0	26.8	
C16-AKAK-C16: geminoid in shorthand Cp-Zn-Cq, peptide SEQ ID NO: 74			3.0	103.7	
C16-AKAKG-C16: geminoid in shorthand Cp-Zn-Cq, peptide SEQ ID NO: 87			3.0	102.3	
C16-D-AKAK-L-S-C16: geminoid in shorthand Cp-Zn-Cq, D-AKAK with L-S, SEQ ID NO: 89 (C16-[dA][dK][dA][dK]S-C16)			3.0	108.0	
C16-LKAKG-C16: geminoid in shorthand Cp-Zn-Cq, peptide SEQ ID NO: 88			3.0	98.4	
